Some test systems named below: MDA-MB-231 breast; SK-MEL-28 melanoma; ACHN renal; HL-60(TB) leukemia; SF-295 CNS; MOLT-4 leukemia; PC-3 prostate; SW-620 colon; DU-145 prostate; OVCAR-8 ovarian.
Common to all, as to assay: NCI anticancer screen, dose series, 48 h

The values below come from PubChem BioAssay (NCI).

Several values for one entry are separate records, joined by “and”; a condition that tells them apart may be missing. Equal values may be shown once.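 All cell lines were grown in 96-well plates and treated with compound for 48 hours. GI50: concentration for 50% inhibition of growth. TGI denotes the concentration required for complete inhibition of growth.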

As to `O=C(NCCCl)Nc1cccnc1`, the TGI is 33.3 µM in the assay with MDA-MB-231 breast; greater than 100 µM in the assay on SK-MEL-28 melanoma; 27.4 µM in the assay with ACHN renal; greater than 100 µM in the assay on HL-60(TB) leukemia; 94.5 µM in the assay on SF-295 CNS; 81.8 µM in the assay on MOLT-4 leukemia. Also, the TGI with PC-3 prostate was greater than 100 µM; with SW-620 colon it was greater than 100 µM; with DU-145 prostate, 29.4 µM; in the assay with OVCAR-8 ovarian, 27.9 µM.
As to `C=CC(=O)N1C[C@@H]2CCOc3c(Cl)c(-c4c(O)cccc4F)c(F)c4ncnc(c34)N2C[C@H]1C`, the GI50 in the assay on MDA-MB-231 breast is 11.5 µM; in the assay on SK-MEL-28 melanoma it was 13.5 µM; in the assay on ACHN renal, 10.5 µM; in the assay on HL-60(TB) leukemia, 4.81 µM; in the assay on SF-295 CNS, 15.6 µM; in the assay with MOLT-4 leukemia, 5.79 µM. The GI50 in the assay with PC-3 prostate was 17.9 µM; with SW-620 colon it was 13.9 µM; in the assay on DU-145 prostate it was 10.5 µM; in the assay on OVCAR-8 ovarian it was 16.5 µM. Also, the TGI with MDA-MB-231 breast was 27.7 µM; in the assay on SK-MEL-28 melanoma, 27.1 µM; with ACHN renal, 22.2 µM; with HL-60(TB) leukemia, 33.1 µM; in the assay with SF-295 CNS, 32.5 µM; in the assay on MOLT-4 leukemia, greater than 100 µM. In addition, the TGI with PC-3 prostate is greater than 100 µM; with SW-620 colon it was 33.1 µM; in the assay on DU-145 prostate, 22.3 µM; in the assay on OVCAR-8 ovarian, 56.6 µM.
Regarding `O=C(c1ccc(C(F)(F)F)c(Cl)c1)N(Cc1ccc(Cl)cc1)c1ccc(-c2cc(C(F)(F)F)[nH]n2)c(O)c1`, the GI50 was 0.964 µM in the assay on MDA-MB-231 breast; 1.43 µM in the assay on SK-MEL-28 melanoma; 1.24 µM with ACHN renal; 1.12 µM with HL-60(TB) leukemia; 1.08 µM with SF-295 CNS; 1.32 µM in the assay with MOLT-4 leukemia. The GI50 with PC-3 prostate is 0.897 µM; in the assay on SW-620 colon, 0.958 µM; with DU-145 prostate, 1.43 µM; in the assay on OVCAR-8 ovarian, 1.2 µM. In addition, the TGI in the assay with MDA-MB-231 breast amounted to 2.21 µM; in the assay on SK-MEL-28 melanoma it was 5.16 µM; in the assay on ACHN renal, 4.05 µM; with HL-60(TB) leukemia, 2.69 µM; in the assay on SF-295 CNS it was 2.87 µM; with MOLT-4 leukemia, 5.09 µM. The TGI came to 2.91 µM in the assay on PC-3 prostate, 2.4 µM in the assay on SW-620 colon, 5.34 µM in the assay on DU-145 prostate and 3.91 µM in the assay on OVCAR-8 ovarian.
With `CC(C)(C)c1cc(NC(=O)Nc2ccc(-c3cn4c(n3)sc3cc(OCCN5CCOCC5)ccc34)cc2)no1`, the GI50 with MDA-MB-231 breast was 6.34 µM and 2.36 µM and 7.92 µM; in the assay on SK-MEL-28 melanoma, 4.23 µM and 2.04 µM and > 10 µM; with ACHN renal, 3.48 µM and 1.22 µM and 8.06 µM; with SF-295 CNS, 1.01 µM and 0.404 µM and 1.42 µM; with PC-3 prostate, 4.63 µM and 0.771 µM and 5.06 µM; in the assay on SW-620 colon, 11.4 µM and 2.86 µM and > 10 µM. Besides, the GI50 in the assay with DU-145 prostate is 10.7 µM and 2.28 µM and 9.69 µM; in the assay with OVCAR-8 ovarian, 1.14 µM and 0.544 µM and 1.51 µM. Further, the TGI in the assay on MDA-MB-231 breast was 21 µM and 16.3 µM and > 10 µM; in the assay with SK-MEL-28 melanoma it was 17.5 µM and 12 µM and > 10 µM; in the assay with ACHN renal it was 18.1 µM and 13.2 µM and > 10 µM; in the assay with HL-60(TB) leukemia, > 100 µM and 24.8 µM and > 10 µM; in the assay with SF-295 CNS it was 18.1 µM and 2.55 µM and > 10 µM; in the assay on MOLT-4 leukemia it was > 100 µM and 23.6 µM and > 10 µM. Moreover, the TGI is 19.1 µM and 14.2 µM and > 10 µM in the assay on PC-3 prostate; 27.2 µM and 17.6 µM and > 10 µM with SW-620 colon; 22.5 µM and 13.3 µM and > 10 µM with DU-145 prostate; 12.3 µM and 11.8 µM and > 10 µM in the assay with OVCAR-8 ovarian.
`CC(C)(c1ccccc1)c1cc(O)c(C(C)(C)c2ccccc2)cc1O`: the GI50 was 1.43 µM in the assay with MDA-MB-231 breast; 2.81 µM with SK-MEL-28 melanoma; 2.7 µM in the assay with ACHN renal; 1.84 µM with HL-60(TB) leukemia; 1.33 µM in the assay with SF-295 CNS; 1.72 µM in the assay with MOLT-4 leukemia. Moreover, the GI50 with PC-3 prostate was 1.96 µM; in the assay with SW-620 colon, 2.77 µM; with DU-145 prostate, 3.83 µM; in the assay with OVCAR-8 ovarian, 3.75 µM. The TGI in the assay on MDA-MB-231 breast came to 6.28 µM; in the assay with SK-MEL-28 melanoma, 14 µM; with ACHN renal, 12.2 µM; in the assay on HL-60(TB) leukemia, 5.53 µM; in the assay on SF-295 CNS, 3.23 µM; in the assay with MOLT-4 leukemia, 7.82 µM. Besides, the TGI with PC-3 prostate is 10.9 µM; in the assay with SW-620 colon, 14.6 µM; with DU-145 prostate it was 16.2 µM; in the assay with OVCAR-8 ovarian, 20.9 µM.
For the compound `COC(=O)c1cc2oc(/C=C3/SC(=S)N(N)C3=O)cc2n1Cc1ccccc1`, the GI50 in the assay on MDA-MB-231 breast was 8.66 µM; with SK-MEL-28 melanoma it was 7.48 µM; in the assay with ACHN renal, 7.08 µM; with HL-60(TB) leukemia, greater than 15.7 µM; in the assay on SF-295 CNS, 1.76 µM; with MOLT-4 leukemia it was 4.23 µM. In addition, the GI50 is 9.61 µM in the assay on PC-3 prostate, 13.4 µM in the assay with SW-620 colon, 3.59 µM with DU-145 prostate and 3.24 µM in the assay with OVCAR-8 ovarian. In addition, the TGI in the assay on MDA-MB-231 breast was 26 µM; in the assay with SK-MEL-28 melanoma, greater than 30.1 µM; in the assay with ACHN renal, 25.8 µM; in the assay with HL-60(TB) leukemia, greater than 100 µM; with SF-295 CNS it was 6.02 µM; in the assay on MOLT-4 leukemia, greater than 100 µM. In addition, the TGI was greater than 31.9 µM with PC-3 prostate, greater than 29.5 µM in the assay with SW-620 colon, 15.7 µM in the assay on DU-145 prostate and 22.7 µM with OVCAR-8 ovarian.
Consider `O=C(COc1cccc(/C=C2\CSc3ccc(Cl)cc3C2=O)c1)c1ccc(Cl)cc1`, for which the GI50 with MDA-MB-231 breast is 2.93 µM; in the assay with SK-MEL-28 melanoma, 15.6 µM; in the assay on ACHN renal, 12.5 µM; in the assay with HL-60(TB) leukemia, 2.69 µM; in the assay on SF-295 CNS, 4.48 µM; in the assay with MOLT-4 leukemia, 1.84 µM. Also, the GI50 with PC-3 prostate was 3.35 µM; with SW-620 colon, 1.67 µM; in the assay with DU-145 prostate it was 13.6 µM; with OVCAR-8 ovarian, 5.1 µM. For the same compound, the TGI in the assay on MDA-MB-231 breast amounted to 16.5 µM; in the assay with SK-MEL-28 melanoma it was 30.4 µM; with ACHN renal, 25 µM; in the assay on HL-60(TB) leukemia it was 6.87 µM; in the assay on SF-295 CNS, 18.7 µM; in the assay on MOLT-4 leukemia, 4.46 µM. Moreover, the TGI was 11.4 µM with PC-3 prostate, 3.09 µM with SW-620 colon, 27.9 µM in the assay on DU-145 prostate and greater than 100 µM in the assay on OVCAR-8 ovarian.
For the compound `NC(=S)N/N=C1\c2ccccc2-c2c(F)c(F)c(F)c(F)c21`, the GI50 with MDA-MB-231 breast was 4.21 µM; in the assay on SK-MEL-28 melanoma it was 2.99 µM; in the assay on ACHN renal, 2.11 µM; in the assay on HL-60(TB) leukemia, 3.58 µM; in the assay with SF-295 CNS it was 12.4 µM; in the assay on MOLT-4 leukemia it was 1.8 µM. Besides, the GI50 with PC-3 prostate was 10.1 µM; with SW-620 colon, 1.79 µM; with DU-145 prostate, 5.39 µM; in the assay with OVCAR-8 ovarian it was 1.84 µM. The TGI was 10.7 µM with MDA-MB-231 breast; 8.87 µM in the assay on SK-MEL-28 melanoma; 4.38 µM with ACHN renal; 16 µM in the assay with HL-60(TB) leukemia; 57.7 µM in the assay on SF-295 CNS; 5.31 µM with MOLT-4 leukemia. Also, the TGI in the assay with PC-3 prostate worked out at 28.3 µM; with SW-620 colon it was 3.66 µM; in the assay on DU-145 prostate, 17 µM; in the assay on OVCAR-8 ovarian, 3.68 µM.
